Counter-ions that a name gives are not always drawn.

This is an account of results in patent US4521417A, “Geranylgeranylacetamide compounds having a piperazine ring, salts thereof, pharmaceutical compositions containing said compounds, and method of treating ulcers in mammals” (Nihon Iyakuhin Kogyo Co., Ltd., priority 1982, dated 1985).

For experiment [1], the system named is ulcer. Description: Pharmacological Test 1: pylorus-ligation ulcer in fasted rats, drug intraduodenal, ulcer area after 8 h. In kind it is in vivo, STD Wistar-strain male rats. The conditions noted are these: Rattus norvegicus, pylorus ligated, n=15 rats, read-out: Percent inhibition (ulcer area). As for the experimental part: (§1) Pharmacological tests were conducted on the above-mentioned known anti-ulcerogenic agents, the typical known anti-ulcerogenic compound of formula (A)-1 given hereinabove, and the compounds of formula (I) in accordance with this invention in order to examine their anti-ulcerogenic activities.
(§2) In these pharmacological tests, the numbers attached to the compounds of this invention correspond to the numbers of Production Examples given hereinbelow.
STD Wistar-strain male rats (body weight 170 to 200 g) were caused to fast for 72 hours, and then under ether anesthesia, were incised at the abdomen. The pylorus portion was ligated, and each of the test drugs was intraduodenally administered. The abdomen was closed and sewn. Eight hours later, the abdomen was cut open, and the stomach was taken out. The area of a generated ulcer was measured by a stereoscopic microscope, and the percent inhibition was calculated by comparison from a control to which the drug was not administered.

Experiment [2] has as its system ulcers generated in the stomach body. Kind of experiment: Pharmacological Test 2: water-immersion stress ulcer in rats, drug oral, total ulcer length. The note with it: Rattus norvegicus, 1 hour before water immersion stress at 23±1° C., 18 hours, n=10 rats, read-out: Percent inhibition (total length of ulcers). In kind it is in vivo, STD Wistar-strain male rats. As for the experimental part: as §1, §2
STD Wistar-strain male rats (body weight 170 to 200 g) were caused to fast for 30 hours, and put in a wire cage. They were immersed in a constant temperature water tank kept at 23±1° C. to their emsistermun. Eighteen hours later, the animals were taken out, and incised at the abdomen. The stomach was cut open and examined microscopically. One hour before applying stress to the animals by water immersion, each of the test drugs was orally administered. The total length of ulcers generated in the stomach body was compared with that in a control, and the rate of inhibiting ulcer formation was calculated.

The test system of experiment [3] is ulcers. Kind of experiment: Pharmacological Test 3: indomethacine-induced ulcer in rats, drug oral, total ulcer length. The note with it: Rattus norvegicus, 10 minutes before indomethacine 40 mg/kg s.c., 7 hours, n=10 rats, read-out: Percent inhibition (total length of ulcers). In kind it is in vivo, STD Wistar male rats. As for the experimental part: Pharmacological tests were conducted on the above-mentioned known anti-ulcerogenic agents, the typical known anti-ulcerogenic compound of formula (A)-1 given hereinabove, and the compounds of formula (I) in accordance with this invention in order to examine their anti-ulcerogenic activities. In these pharmacological tests, the numbers attached to the compounds of this invention correspond to the numbers of Production Examples given hereinbelow. STD Wistar male rats (body weight 170 to 200 g) were caused to fast for 24 hours, and indomethacine dissolved in a 5% aqueous solution of sodium hydrogen carbonate was subcutaneously administered in a dose of 40 mg/kg. Seven hours later, the animals were autopsied. Each of the test drugs was administered orally to the stomach 10 minutes before administration of indomethacine. The total length of ulcers formed was compared with that in a control, and the percent inhibition was calculated.

On to `CC1(C)[C@@H](OC(=O)CCC(=O)O)CC[C@]2(C)[C@H]3C(=O)C=C4[C@@H]5C[C@@](C)(C(=O)O)CC[C@]5(C)CC[C@@]4(C)[C@]3(C)CC[C@@H]12` [Carbenoxolone sodium, glycyrrhetinic acid hydrogen succinate, disodium salt, reference compound], for which the inhibition in vivo at 300 mg/kg stood at 60.5% in experiment [1], 8.6% in experiment [2] and 63.6% in experiment [3].

Take `NC[C@H]1CC[C@H](C(=O)Oc2ccc(CCC(=O)O)cc2)CC1` [Cetraxate hydrochloride, 4-(2-carboxyethyl)-phenyl-trans-4-aminomethylcyclohexanecarboxylate hydrochloride, reference compound]: the inhibition in vivo at 300 mg/kg in experiment [1] was determined as 27.8%; in experiment [2], 31.6%; in experiment [3], 25.3%.

`CC(C)=CCCC(C)=CCCC(C)=CCCC(=O)N1CCN(C)CC1` [Comparative compound of formula (A)-1, reference compound]: the inhibition in vivo at 300 mg/kg in experiment [1] is 53.3%; in experiment [2], 45.6%; in experiment [3], 51.2%.

In the case of `CC(C)=CCC/C(C)=C/CC/C(C)=C/CC/C(C)=C/CCC(=O)N1CCNCC1` [Compound (1), N-geranylgeranylacetyl piperazine], the results for the inhibition in vivo at 300 mg/kg in experiment [1] and in experiment [2] were 68.2% and 73.8%, respectively. Further, the inhibition in vivo at 200 mg/kg in experiment [3] turned out to be 66%.

In the case of `CC(C)=CCC/C(C)=C/CC/C(C)=C/CC/C(C)=C/CCC(=O)N1CCN(C)CC1` [Compound (2), N-methyl-N'-geranylgeranylacetyl piperazine], the values for the inhibition in vivo at 300 mg/kg in experiment [1] and in experiment [2] were 74.5% and 76%, respectively. In addition, the inhibition in vivo at 200 mg/kg in experiment [3] was found to be 75.3%.

`CCN1CCN(C(=O)CC/C=C(\C)CC/C=C(\C)CC/C=C(\C)CCC=C(C)C)CC1` [Compound (3), N-ethyl-N'-geranylgeranylacetyl piperazine]: the inhibition in vivo at 300 mg/kg in experiment [1] came out at 70.1%; in experiment [2], 68.7%. For the same compound, the inhibition in vivo at 200 mg/kg in experiment [3] was 62.1%.

`CCCN1CCN(C(=O)CC/C=C(\C)CC/C=C(\C)CC/C=C(\C)CCC=C(C)C)CC1` [Compound (4), N-n-propyl-N'-geranylgeranylacetyl piperazine]: the inhibition in vivo at 300 mg/kg in experiment [1] turned out to be 64.7%; in experiment [2] it was 69%. Besides, in experiment [3], the inhibition in vivo at 200 mg/kg worked out at 56.5%.

For `CC(C)=CCC/C(C)=C/CC/C(C)=C/CC/C(C)=C/CCC(=O)N1CCN(C(C)C)CC1` [Compound (5), N-isopropyl-N'-geranylgeranylacetyl piperazine], the inhibition in vivo at 300 mg/kg in experiment [1] amounted to 66.5%; in experiment [2], 64%. In addition, in experiment [3], the inhibition in vivo at 200 mg/kg turned out to be 60%.

With `CCCCN1CCN(C(=O)CC/C=C(\C)CC/C=C(\C)CC/C=C(\C)CCC=C(C)C)CC1` [Compound (6), N-butyl-N'-geranylgeranylacetyl piperazine], the results for the inhibition in vivo at 300 mg/kg in experiment [1] and in experiment [2] were 66.5% and 60.6%, respectively. For the same compound, the inhibition in vivo at 200 mg/kg in experiment [3] came out at 55.3%.

Regarding `CCCCCN1CCN(C(=O)CC/C=C(\C)CC/C=C(\C)CC/C=C(\C)CCC=C(C)C)CC1` [Compound (7), N-n-amyl-N'-geranylgeranylacetyl piperazine], the results for the inhibition in vivo at 300 mg/kg in experiment [1] and in experiment [2] were 67.3% and 64.6%, respectively. Also, the inhibition in vivo at 200 mg/kg in experiment [3] turned out to be 65.3%.

With `C=CCN1CCN(C(=O)CC/C=C(\C)CC/C=C(\C)CC/C=C(\C)CCC=C(C)C)CC1` [Compound (8), N-allyl-N'-geranylgeranylacetyl piperazine], the values for the inhibition in vivo at 300 mg/kg in experiment [1] and in experiment [2] were 70.5% and 68.5%, respectively. In experiment [3], the inhibition in vivo at 200 mg/kg is 72.5%.

On to `CC(C)=CCC/C(C)=C/CC/C(C)=C/CC/C(C)=C/CCC(=O)N1CCN(CC=C(C)C)CC1` [Compound (9), N-prenyl-N'-geranylgeranylacetyl piperazine], for which the inhibition in vivo at 300 mg/kg was found to be 64% in experiment [1] and 59% in experiment [2]. In addition, in experiment [3], the inhibition in vivo at 200 mg/kg is 57.2%.

Regarding `CC(C)=CCC/C(C)=C/CC/C(C)=C/CC/C(C)=C/CCC(=O)N1CCN(CCCCCl)CC1` [Compound (10), N-4-chlorobutyl-N'-geranylgeranylacetyl piperazine], the inhibition in vivo at 300 mg/kg in experiment [1] amounted to 65.3%; in experiment [2] it was 67.3%. In experiment [3], the inhibition in vivo at 200 mg/kg came to 70.2%.

As for `CC(C)=CCC/C(C)=C/CC/C(C)=C/CC/C(C)=C/CCC(=O)N1CCN(CCCBr)CC1` [Compound (11), N-3-bromopropyl-N'-geranylgeranylacetyl piperazine], the inhibition in vivo at 300 mg/kg in experiment [1] is 66.8%; in experiment [2] it was 65.3%. Moreover, the inhibition in vivo at 200 mg/kg in experiment [3] was determined as 65.6%.

As for `CC(C)=CCC/C(C)=C/CC/C(C)=C/CC/C(C)=C/CCC(=O)N1CCN(Cc2ccccc2)CC1` [Compound (12), N-benzyl-N'-geranylgeranylacetyl piperazine], the inhibition in vivo at 300 mg/kg in experiment [1] was 64.9%; in experiment [2] it was 61.1%. Moreover, in experiment [3], the inhibition in vivo at 200 mg/kg came to 62.1%.

For `CC(C)=CCCC(C)=CCCC(C)=CCCC(C)=CCCC(=O)N1CCNC(C)C1` (stereo not drawn) [Compound (13), methyl-N-geranylgeranylacetyl piperazine], the inhibition in vivo at 300 mg/kg in experiment [1] came out at 77.1%; in experiment [2], 82.8%. The inhibition in vivo at 200 mg/kg in experiment [3] is 79.2%.

Take `CCC1CN(C(=O)CCC=C(C)CCC=C(C)CCC=C(C)CCC=C(C)C)CCN1` (stereo not drawn) [Compound (14)]: the results for the inhibition in vivo at 300 mg/kg in experiment [1] and in experiment [2] were 71.5% and 70.2%, respectively. Also, the inhibition in vivo at 200 mg/kg in experiment [3] turned out to be 73.5%.

In the case of `CC(C)=CCC/C(C)=C/CC/C(C)=C/CC/C(C)=C/CCC(=O)N1C(C)CNCC1C` (stereo not drawn) [Compound (15), 2,6-dimethyl-N-geranylgeranylacetyl piperazine], the inhibition in vivo at 300 mg/kg in experiment [1] and in experiment [2] was 80% each time. Also, the inhibition in vivo at 200 mg/kg in experiment [3] stood at 77.2%.

With `CC(C)=CCCC(C)=CCCC(C)=CCCC(=O)OC/C=C(\C)CCC=C(C)C` [Gefarnate, geranyl farnesylacetate, reference compound], the inhibition in vivo at 300 mg/kg is 30% in experiment [1], 23.6% in experiment [2] and 33.1% in experiment [3].
